The target in assay [1] is PA N-terminal endonuclease domain (residues 1–220) of influenza A RNA polymerase (Influenza A virus, UniProt P03433). In words: in vitro PA endonuclease assay with recombinant PA endonuclease domain (M13 mp18 digestion, agarose electrophoresis). It is filed as biochemical, influenza A virus (A/PR/8/34 (H1N1)). The following applies: Fig. 2C. As to the method: For the in vitro PA endonuclease assay, we expressed and purified a recombinant influenza PA endonuclease domain (1–220 residues; Fig. 2A, B) using bacteria as described previously [15]–[17]. For the assay, we incubated 0.1 µM recombinant PA endonuclease domain with 1 or 10 µM of each fullerene derivative (Fig. 2C). The PA endonuclease domain digested M13 mp18 circular single-stranded DNA in vitro (Fig. 2C, lanes 1 and 2) [12]–[16], and we investigated whether any of the fullerene derivatives could inhibit this activity. […] This is the first study to report that fullerene derivatives can inhibit the activity of influenza enzymes. Fullerene derivative no.
The influenza A virus (A/PR/8/34 (H1N1)) RNA polymerase PA plasmid, pBMSA-PA, was obtained from the DNA bank at Riken BioResource Center (Tsukuba, Japan; originally deposited by Susumu Nakada). The cDNA fragment corresponding to the PA N-terminal endonuclease domain (residues 1–220; Fig. 2A) was amplified by polymerase chain reaction (PCR) from pBMSA-PA. The amplified product was subcloned into the pET28a (+) plasmid (Novagen, Madison, WI, USA). The induction of recombinant protein expression was achieved by the addition of isopropyl-D-thiogalactopyranoside, and this was followed by purification using Ni^2+-agarose. The recombinant PA endonuclease domain protein was further purified to near homogeneity (Fig. 2B) using a HiTrapQ-FF column (GE Healthcare, Buckinghamshire, UK).
Influenza A RNA polymerase PA endonuclease activity assays were performed as described by Dias et al. with some modifications [12]–[16]. Briefly, the pH was lowered from 8.0 to 7.3, and 1 µg M13 mp18 single-stranded circular phage DNA was used as the substrate. A total of 0.25 µg recombinant PA endonuclease domain or full-length PA protein were added to 100 µL assay buffer for each reaction (the final concentration of the protein was approximately 0.1 µM). For the fullerene derivative nuclease assay, no PA protein was added at this step. The fullerene derivatives (summarized in Fig. 1) were then added to the reaction, and the products were analyzed by agarose electrophoresis and stained with ethidium bromide.

Assay [2] concerns M13 mp18 single-stranded circular phage DNA. The assay is described as follows: fullerene derivative nuclease assay in the absence of PA protein. Type of assay: biochemical. The following applies: 10 µM; absence of PA endonuclease; M13 mp18 substrate; Fig. 4.
For assay [3], the system named is influenza A virus A/PR/8/34 (H1N1). The assay is described as follows: microbe, parasite or virus in culture. It is filed as cell-based. The following applies: for IC50: read-out: IC50 H1N1 PR8 strain.
For assay [4], the system named is influenza A virus A/Aichi/2/68 (H3N2). The assay is described as follows: microbe, parasite or virus in culture. The following applies: read-out: IC50 H3N2 Aichi strain. Type of assay: cell-based.
Assay [5] deals with influenza A virus (A/PR/8/34 (H1N1)). It is filed as cell-based. The following applies: 100 µM, A/PR8/34 (H1N1), western blotting. On the technique in general: Immunoblotting shows a protein as a band on a membrane.
Details of assay [6]: method as in PMID 14643333. As to conditions: cited from earlier work.
Details of assay [7]: method as in PMID 14643333. The following applies: cited from earlier work. The source holds these as a separate data set.
On the set-up of assay [8]: method as in earlier work. As to conditions: cited from earlier work.
The test system of assay [9] is HIV-reverse transcriptase. Also on record: method as in PMID 15686922. As to conditions: cited from earlier work.

Where two headings read alike, the source gives them in different places.

In the case of “1,1,1′,1′-tetramethyl [60]fullerenodipyrrolidinium diiodide [no. 6]”, the “inhibition of the digestion of M13 mp18 by the PA endonuclease domain” value in assay [1] (10 µM fullerene derivative, 0.1 µM recombinant PA endonuclease domain) is “no or weak inhibitory activity”. Further, the “mobility shift of M13 mp18” value in assay [1] (lane 13) is reported as “caused a mobility shift”. Besides, the “nuclease activity of the fullerene derivative by itself” value in assay [2] was “significant nuclease activity”. The IC50 in [3] was determined as 20 µM; in [4], 31 µM. Moreover, the “antiviral effects against the influenza A virus (overall conclusion)” value in assay [3] (summary of immunostaining and western blotting) is “strongest antiviral activity”. In addition, the “expression levels of influenza A NP and NS1 proteins compared with DMSO-treated cells” value in assay [5] is on record as “reduced”. Besides, the antiproliferative activity result in assay [6] is “antiproliferative and antibacterial activity”. The antibacterial activity entry in [7] is “antiproliferative and antibacterial activity”.
In the case of “[60]fullerenodicyclopropane-1,1,1′,1′-tetracarboxylic acid [no. 2]”, the figures for the IC50 in assay [3] and in assay [4] were 57 µM and more than 100 µM, respectively. Moreover, the antioxidant activity entry in [8] was “excellent antioxidant activity”.
For the compound `O=C(O)C1NC(C(=O)O)C23c4c5c6c7c8c9c(c%10c%11c2c2c4c4c%12c5c5c6c6c8c8c%13c9c9c%10c%10c%11c%11c2c2c4c4c%12c%12c5c5c6c8c6c8c%13c9c9c%10c%10c%11c2c2c4c4c%12c5c6c5c8c9c%10c2c45)C713` (stereo not drawn) [no. 3, [60]fullerenopyrrolidine-2,5-dicarboxylic acid], the concentration for half-maximal inhibition (IC50) is more than 100 µM in assay [3] (Influenza A virus, MDCK, 24 h) and more than 100 µM in assay [4] (Influenza A virus, H3N2, MDCK, 24 h). Besides, the “inhibition of HIV-reverse transcriptase” value in assay [9] is reported as “inhibits”.

A word on the IC50: it is the concentration at which inhibition is half-maximal.

These data come from paper PMC3681905, “Anti-Influenza Activity of C60 Fullerene Derivatives” (PLoS ONE, 2013).
